Drawing on patent US11608337B2, “Heterocyclic compounds as immunomodulators” (Incyte Corporation, priority 2016, dated 2023), this text covers IC50 for five compounds.

The term IC50 denotes the midpoint of a concentration-inhibition curve.

Sequence of PD-1/PD-L1 protein/protein interaction (Q9NZQ7 19-238): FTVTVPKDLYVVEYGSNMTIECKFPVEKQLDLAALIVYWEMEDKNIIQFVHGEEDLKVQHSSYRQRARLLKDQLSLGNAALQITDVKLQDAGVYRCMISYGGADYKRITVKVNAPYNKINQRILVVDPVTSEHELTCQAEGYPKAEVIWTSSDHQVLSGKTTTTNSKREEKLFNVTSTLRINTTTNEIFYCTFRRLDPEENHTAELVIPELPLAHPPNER

The experiment addresses PD-1/PD-L1 protein/protein interaction (Homo sapiens (Human), UniProt Q9NZQ7). Put plainly: PD-1/PD-L1 Homogeneous Time-Resolved Fluorescence (HTRF) Binding Assay. The conditions noted are these: recombinant human PD-L1 (19-238) His-tag, human PD-1 (25-167) Fc tag; 25° C., PBS pH 7.4. As to the method:
Example A. PD-1/PD-L1 Homogeneous Time-Resolved Fluorescence (HTRF) Binding Assay
The assays were conducted in a standard black 384-well polystyrene plate with a final volume of 20 μL. Inhibitors were first serially diluted in DMSO and then added to the plate wells before the addition of other reaction components. The final concentration of DMSO in the assay was 1%. The assays were carried out at 25° C. in the PBS buffer (pH 7.4) with 0.05% Tween-20 and 0.1% BSA. Recombinant human PD-L1 protein (19-238) with a His-tag at the C-terminus was purchased from AcroBiosystems (PD1-H5229). Recombinant human PD-1 protein (25-167) with Fc tag at the C-terminus was also purchased from AcroBiosystems (PD1-H5257). PD-L1 and PD-1 proteins were diluted in the assay buffer and 10 μL was added to the plate well. Plates were centrifuged and proteins were preincubated with inhibitors for 40 minutes. The incubation was followed by the addition of 10 μL of HTRF detection buffer supplemented with Europium cryptate-labeled anti-human IgG (PerkinElmer-AD0212) specific for Fc and anti-His antibody conjugated to SureLight®-Allophycocyanin (APC, PerkinElmer-AD0059H). After centrifugation, the plate was incubated at 25° C. for 60 min. before reading on a PHERAstar FS plate reader (665 nm/620 nm ratio). Final concentrations in the assay were […], 10 nM PD-L1, 1 nM europium anti-human IgG and 20 nM anti-His-Allophycocyanin. IC50 determination was performed by fitting the curve of percent control activity versus the log of the inhibitor concentration using the GraphPad Prism 5.0 software.
Data obtained for the Example compounds using the PD-1/PD-L homogenous time-resolved fluorescence (HTRF) binding assay described in Example A is provided in Table 1.
A general note: Time-resolved FRET reads energy transfer from a long-lived donor to a nearby acceptor.
As for `Cc1c(-c2ccccc2)cccc1-c1nc2c(s1)CN(C1CCOCC1)CC2` [Example 6, 2-(2-methylbiphenyl-3-yl)-5-(tetrahydro-2H-pyran-4-yl)-4,5,6,7-tetrahydro[1,3]thiazolo[5,4-c]pyridine], the IC50 is 100 to 500 nM.
Consider `Cc1c(-c2ccccc2)cccc1-c1nc2c(s1)CN(C1CCC(CC#N)CC1)CC2` (centres unmarked) [Example 11, {4-[2-(2-methylbiphenyl-3-yl)-6,7-dihydro[1,3]thiazolo[5,4-c]pyridin-5(4H)-yl]cyclohexyl}acetonitrile], for which the IC50 was in the range of 100 to 500 nM.
With `Cc1c(-c2ccccc2)cccc1-c1nc2c(s1)CN(CCO)CC2` [Example 4, 2-[2-(2-methylbiphenyl-3-yl)-6,7-dihydro[1,3]thiazolo[5,4-c]pyridin-5(4H)-yl]ethanol] the figure was at most 100 nM.
Take `Cc1c(-c2nc3c(s2)CNCC3)cccc1-c1cccc2c1cnn2C` [Example 40, 2-[2-methyl-3-(1-methyl-1H-indazol-4-yl)phenyl]-4,5,6,7-tetrahydro[1,3]thiazolo[5,4-c]pyridine]: the IC50 is at most 100 nM.
With `Cc1c(-c2ccccc2)cccc1-c1nc2c(s1)CNCC2` [Example 2, 2-(2-methylbiphenyl-3-yl)-4,5,6,7-tetrahydro[1,3]thiazolo[5,4-c]pyridine] the figure was at most 100 nM.
